Patent US11679158B2, “Biodegradable lipids for the delivery of active agents” (ALNYLAM PHARMACEUTICALS, INC., priority 2011, dated 2023)

Tests used:
[1] = Lipid nanoparticle size by dynamic laser light scattering before and after overnight dialysis; type: physicochemical; details: intensity weighted diameter, LNP with AD-1661; for LNPs Size (nm) change: size after dialysis: after overnight dialysis; for LNPs Size (nm) change: size before dialysis: before overnight dialysis
Method: The size of the lipid nanoparticles was measured before and after undergoing dialysis overnight. In general, greater changes in lipid nanoparticle size are indicative of lesser stability.
Dynamic laser light scattering was used to determine the lipid nanoparticle size (expressed as the intensity weighted diameter) with a Zetasizer (Malvern Instruments, Inc. of Westborough, Mass.). All measurements were made at 532 nm wavelength at the scattering angle of 173° using normal resolution mode as the analysis model.

[2] = HPLC retention time of cationic lipid in lipid nanoparticles relative to cholesterol; type: physicochemical; details: HPLC retention time of lipid in LNP (AD-1661 payload) relative to cholesterol; in min (unit assumed)
Method: Furthermore, the HPLC retention time for each biodegradable cationic lipid was measured in lipid nanoparticles prepared from them. The lipid nanoparticles were prepared as described in Example 35 using AD-1661 as the payload. The retention times are reported in the table below relative to the retention time for cholesterol.
The HPLC buffer used was a mixture of two solutions (Solution #1 and Solution #2). • Solution #1: 80% methanol/20% 10 mM NH4HCO3 • Solution #2: 80% methanol/20% isopropanol

SMILES	LNPs Size (nm) change: size after dialysis [1]	LNPs Size (nm) change: size before dialysis [1]	t(lipid) − t(chol) [2]
CCCCCCCC/C=C\COC(=O)CCCCCCCC(CCCCCCCC(=O)OC/C=C\CCCCCCCC)OC(=O)CCCN(C)C	67 nm	60 nm	1.44
CC(C)CCC(COC(=O)CCCCCCCCCC(CCCCCCCCCC(=O)OCC(CCC(C)C)C(C)C)OC(=O)CCCN(C)C)C(C)C (stereo not drawn)	60 nm	59 nm	1.751
CC(C)CCC(CCOC(=O)CCCCCCCCCC(CCCCCCCCCC(=O)OCCC(CCC(C)C)C(C)C)OC(=O)CCCN(C)C)C(C)C (stereo not drawn)			2.106
CCCCCC/C=C\COC(=O)C(C)CCCCCCC(CCCCCCC(C)C(=O)OC/C=C\CCCCCC)OC(=O)CCCN(C)C (stereo not drawn)	77 nm	73 nm	0.848
CN(C)CCCC(=O)OC(CCCCCCCC/C=C\CCCCCCCC(=O)OCC(C)(C)C)CCCCCCCC/C=C\CCCCCCCC(=O)OCC(C)(C)C			2.707

The remaining lines, values ahead:

LNPs Size (nm) change: size after dialysis [1]	LNPs Size (nm) change: size before dialysis [1]	t(lipid) − t(chol) [2]	SMILES
56 -> 56 nm	56 -> 56 nm	2.365	CCCCCC(CCCCC)CCOC(=O)CCCCCCCC(CCCCCCCC(=O)OCCC(CCCCC)CCCCC)OC(=O)CCCN(C)C
		3.178	CCCCCC(CCCCC)CCOC(=O)CCCCCCCCCC(CCCCCCCCCC(=O)OCCC(CCCCC)CCCCC)OC(=O)CCCN(C)C
67 nm	68 nm	2.219	CCCCCCCCCC/C=C\COC(=O)CCCCCCCC(CCCCCCCC(=O)OC/C=C\CCCCCCCCCC)OC(=O)CCCN(C)C
